One molecule from patent publication US20070249634A1, “Triazolopyrimidine Compounds and Use Thereof for Controlling Harmful Fungi” (priority 2004, published 2007) can be followed below.

By melting point is commonly meant the temperature, or range, at which the solid turns liquid.

`CC1CCN(c2c(-c3cc([N+](=O)[O-])ccc3Cl)c(Cl)nc3ncnn23)CC1` [compound 56, 5-chloro-6-(2-chloro-5-nitrophenyl)-7-(4-methylpiperidin-1-yl)-[1,2,4]-triazolo[1,5-a]pyrimidine] gave a melting point of 199 to 204 °C.
